Source: patent US12636266B2 (Rivo Bio, Inc., priority 2024, dated 2026)

Experiments:
[1] = target: T1, human recombinant 5-HT2A receptor (Homo sapiens, UniProt P28223); assay: IPOne HTRF agonist assay, percent activity at 5-HT2A; assay type: cell-based; conditions: relative to a-Me-5-HT, CHO-K1 cells; for activation at 0.3 µM / activation at 30 µM: 1 h, read-out: Percent (a-Me-5-HT) Activity at 5-HT2A (30 uM/0.3 μM)
T1 construct: host or cells: CHO-K1
Experimental: Example 16: Percent (α-Me-5-HT) Activity at 5-HT2A Assay
Compounds were tested in the IPOne HTRF (Homogeneous Time Resolved Fluorescence) assay at Epics Therapeutics S.A. (Belgium). Briefly, CHO-K1 cells expressing human recombinant 5-HT2A receptor grown to mid-log phase in culture media without antibiotics were detached with PBS-EDTA, centrifuged and resuspended in medium without antibiotics buffer. 20,000 cells were distributed in a 96 well plate and incubated overnight at 37° C. with 5% CO2. For agonist testing (384-well, suspension), 5 μl of cells were dispensed on 5 μl of test compound or reference agonist in each well and the plate was incubated for 60 min. at 37° C. with 5% CO2. IP1-D2 reagent and anti-IP1 cryptate reagents were then dispensed in the wells and IP1 concentrations were then measured following the manufacturer recommendations.

[2] = Z to E isomer conversion by NMR; assay type: physicochemical; conditions: shortly following synthesis
Experimental: Compound 5, described here with structure shown in Scheme 1, is the stable E isomer. However, the initial reaction in Scheme 1 with compound 5-1 produces both the E and Z isomers of 5-2b. Column chromatography was used to separate the isomers and each isomer was then carried through the next three reactions separately, to produce both compound 5 and its Z isomer.

[3] = target: T1, human recombinant 5-HT2A receptor; assay: IPOne HTRF agonist assay, percent activity at 5-HT2A; assay type: cell-based; conditions: relative to 5-HT

T1 sequence (P28223 whole entry): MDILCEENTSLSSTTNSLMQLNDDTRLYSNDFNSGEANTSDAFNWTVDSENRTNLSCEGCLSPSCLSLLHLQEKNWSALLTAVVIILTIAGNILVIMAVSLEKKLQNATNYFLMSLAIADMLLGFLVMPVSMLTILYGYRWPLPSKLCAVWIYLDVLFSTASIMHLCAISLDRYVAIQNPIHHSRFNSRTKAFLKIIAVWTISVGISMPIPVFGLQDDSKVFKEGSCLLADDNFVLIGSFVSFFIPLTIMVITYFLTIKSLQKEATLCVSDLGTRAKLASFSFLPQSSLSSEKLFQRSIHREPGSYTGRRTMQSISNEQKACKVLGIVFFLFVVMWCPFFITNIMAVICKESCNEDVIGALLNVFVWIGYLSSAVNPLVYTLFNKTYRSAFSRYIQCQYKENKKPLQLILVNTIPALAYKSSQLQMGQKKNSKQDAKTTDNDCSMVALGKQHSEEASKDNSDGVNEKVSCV

Structure (SMILES)	Percent (a-Me-5-HT) Activity at 5-HT2A (30 uM/0.3 μM) ([1]; 0.3 μM (second value))	Percent (a-Me-5-HT) Activity at 5-HT2A (30 uM/0.3 μM) ([1]; 30 uM (first value))	also measured
CCC(N)/C=C1\CCc2ccccc21 (stereo not shown) [Compound 101, 1-[(E)-(1-Indanylidene)methyl]propylamine]	15%	20%	–
CN(C)C/C=C1\CCc2sccc21 [Compound 31, N,N-Dimethyl[(E)-2-{2-thiabicyclo[3.3.0]octa-1(5),3-dien-6-ylidene}ethyl]amine]	3%	2%	–
FC(F)(F)Oc1ccc2c(c1)/C(=C/CN1CCC1)CC2 [Compound 27, 1-[(E)-2-(6-Trifluoromethoxy-1-indanylidene)ethyl]azetidine]	5%	8%	–
COc1ccc2c(c1)CC/C2=C\CN(C)C [Compound 26, N,N-Dimethyl[(E)-2-(5-methoxy-1-indanylidene)ethyl]amine]	–	–	activation at 0.3 µM ([1]; 0.3 μM (second value)): 10%; activation at 30 µM ([1]; 30 uM (first value)): -1%
COc1ccc2c(c1)/C(=C(/F)CN(C)C)CC2 [Compound 23, N,N-Dimethyl[(E)-2-(6-methoxy-1-indanylidene)-2-fluoroethyl]amine]	–	–	activation at 0.3 µM ([1]; 0.3 μM (second value)): -1%; activation at 30 µM ([1]; 30 uM (first value)): -2%
COC1C/C(=C\CN)c2ccccc21 (stereo not shown) [Compound 29]	6%	53%	–
COC1C/C(=C\CN2CCC2)c2ccccc21 (stereo not shown) [Compound 30, 1-[(E)-2-(3-Methoxy-1-indanylidene)ethyl]azetidine]	3%	24%	–
COc1ccc2c(c1)/C(=C\C=O)CC2 (single isomer, unassigned) [Z isomer of compound 5-4]	–	–	Z isomer converting to the E isomer (by NMR) [2]: 40%
COc1ccc2c(c1)CC/C2=C\CN1CCC1 [Compound 25, 1-[(E)-2-(5-Methoxy-1-indanylidene)ethyl]azetidine]	–	–	activation at 0.3 µM ([1]; 0.3 μM (second value)): 0%; activation at 30 µM ([1]; 30 uM (first value)): -3%
OCc1ccc2c(c1)/C(=C/CN1CCC1)CC2 [Compound 103, {(E)-3-[2-(1-Azetidinyl)ethylidene]-5-indanyl}methanol]	9%	94%	–
COc1ccc2c(c1)/C(=C/CN(C)C)CC2 [Compound 5, N,N-Dimethyl[(E)-2-(6-methoxy-1-indanylidene)ethyl]amine]	74%	96%	Percent (5-HT) Activity at 5-HT2A (30 μM) [3]: 92%
COc1ccc2c(c1)/C(=C/CN1CCC1)CC2 [Compound 12, 1-[(E)-2-(6-Methoxy-1-indanylidene)ethyl]azetidine]	27%	47%	–
CN(C)C/C=C1\CCc2ccc3c(c21)CCO3 [Compound 14, N,N-Dimethyl[(E)-2-(3-oxa-1,2,6,7-tetrahydro-as-indacen-8-ylidene)ethyl]amine]	6%	33%	–
C(/CN1CCC1)=C1/CCc2cccnc21 [Compound 28, 1-[(E)-2-(4-Aza-3-indanylidene)ethyl]azetidine]	5/5%	5/5%	–
COc1ccc2c(c1)/C(=C(\F)CN(C)C)CC2 [Compound 10, N,N-Dimethyl[(Z)-2-(6-methoxy-1-indanylidene)-2-fluoroethyl]amine]	4%	1%	–
CN(C)C/C=C1\C=Cc2ccccc21 [Compound 22, N,N-Dimethyl[(E)-2-(1-indenylidene)ethyl]amine]	5%	49%	–
C(/CN1CCC1)=C1/CCc2ccc3c(c21)CCO3 [Compound 24, 1-[(E)-2-(3-Oxa-1,2,6,7-tetrahydro-as-indacen-8-ylidene)ethyl]azetidine]	17%	38%	–
